Data as given in patent publication US7825093B2 (priority 2006, dated 2010).
Entries after “also recorded” stand apart in the source; their conditions may differ.

How the values were obtained:
AT-EAE model = system: AT-EAE model; parameters: species or system Lewis rats; settings: rat, in vivo, sc
human Kv1.3 channel = human Kv1.3 channel (Homo sapiens, UniProt P22001); assay type: cell-based
human PBMCs [1] = assay type: cell-based
[2] = system: CD40L on T cells in human whole blood; assay type: cell-based
[3] = rat, in vivo, iv
[4] = system: IL-2R on T cells in human whole blood; assay type: cell-based
[5] = system: IL-2 production in human whole blood
human PBMCs [6] = assay type: cell-based; remark: listed apart in the source
[7] = system: IFN-g production in human whole blood; assay type: cell-based
[8] = molecular target: HEK 293 cells overexpressing human Kv1.3 (Homo sapiens, UniProt P22001); assay: Immunohistochemistry analysis of binding to HEK 293 cells overexpressing human Kv1.3; settings: 5 μg/ml
Procedure: Immunohistochemistry analysis of Fc-L10-ShK[1-35] binding to HEK 293 cells overexpressing human Kv1.3. HEK 293 cells overexpressing human Kv1.3 (HEK Kv1.3) were obtained from BioFocus plc (Cambridge, UK) and maintained per manufacturer's recommendation. The parental HEK 293 cell line was used as a control. Cells were plated on Poly-D-Lysine 24 well plates (#35-4414; Becton-Dickinson, Bedford, Mass.) and allowed to grow to approximately 70% confluence. HEK KV1.3 were plated at 0.5×10e5 cells/well in 1 ml/well of medium. HEK 293 cells were plated at a density of 1.5×10e5 cells/well in 1 ml/well of medium. Before staining, cells were fixed with formalin (Sigma HT50-1-1 Formalin solution, diluted 1:1 with PBS/0.5% BSA before use) by removing cell growth medium, adding 0.2 ml/well formalin solution and incubating at room temperature for ten minutes. Cells were stained by incubating with 0.2 ml/well of 5 μg/ml Fc-L10-ShK[1-35] in PBS/BSA for 30′ at room temperature. Fc-L10-ShK[1-35] was aspirated and then the cells were washed one time with PBS/0.5% BSA. Detection antibody (Goat F(ab)2 anti-human IgG-phycoerythrin; Southern Biotech Associates, Birmingham, Ala.) was added to the wells at 5 μg/ml in PBS/0.5% BSA and incubated for 30′ at room temperature. Wash cells once with PBS/0.5% BSA and examine using confocal microscopy (LSM 510 Meta Confocal Microscope; Carl Zeiss AG, Germany). […]

human PBMCs [9] = assay type: cell-based; remark: listed apart in the source
[10] = molecular target: Kv1.3 transfected HEK 293 cells (Homo sapiens, UniProt P22001); assay: Whole cell immunoassay (ELISA) on fixed HEK 293 cells overexpressing Kv1.3; assay type: binding
Procedure: Our peptibody reagent can be a useful and convenient tool for monitoring Kv1.3 channel expression in patients and have utility in diagnostic applications. The procedure shown in FIG. 34A and FIG. 34B follows.
FIG. 34A. A whole cell immunoassay was performed to show binding of intact Fc-L10-ShK[1-35] to Kv1.3 transfected HEK 293 cells (BioFocus plc, Cambridge, UK). Parent HEK 293 cells or HEK Kv1.3 cells were plated at 3×10e4 cells/well in poly-D-Lysine coated ninety-six well plates (#35-4461; Becton-Dickinson, Bedford, Mass.). Cells were fixed with formalin (Sigma HT50-1-1 Formalin solution, diluted 1:1 with PBS/0.5% BSA before use) by removing cell growth medium, adding 0.2 ml/well formalin solution and incubating at room temperature for 25 minutes and then washing one time with 100 μl/well of PBS/0.5% BSA. Wells were blocked by addition of 0.3 ml/well of BSA blocker (50-61-00; KPL 10% BSA Diluent/Blocking Solution, diluted 1:1 with PBS; KPL, Gaithersburg, Md.) followed by incubation at room temperature, with shaking, for 3 hr. Plates were washed 2 times with 1×KP Wash Buffer (50-63-00; KPL). […] Absorbance was read at 450 nm on a Molecular Devices SpectroMax 340 (Sunnyvale, Calif.).
FIG. 34B. […] Absorbances were read at 405 nm after stopping reactions by addition of 0.1 ml/well of 1% SDS.

Chain of Kv1.3 transfected HEK 293 cells (P22001 whole entry): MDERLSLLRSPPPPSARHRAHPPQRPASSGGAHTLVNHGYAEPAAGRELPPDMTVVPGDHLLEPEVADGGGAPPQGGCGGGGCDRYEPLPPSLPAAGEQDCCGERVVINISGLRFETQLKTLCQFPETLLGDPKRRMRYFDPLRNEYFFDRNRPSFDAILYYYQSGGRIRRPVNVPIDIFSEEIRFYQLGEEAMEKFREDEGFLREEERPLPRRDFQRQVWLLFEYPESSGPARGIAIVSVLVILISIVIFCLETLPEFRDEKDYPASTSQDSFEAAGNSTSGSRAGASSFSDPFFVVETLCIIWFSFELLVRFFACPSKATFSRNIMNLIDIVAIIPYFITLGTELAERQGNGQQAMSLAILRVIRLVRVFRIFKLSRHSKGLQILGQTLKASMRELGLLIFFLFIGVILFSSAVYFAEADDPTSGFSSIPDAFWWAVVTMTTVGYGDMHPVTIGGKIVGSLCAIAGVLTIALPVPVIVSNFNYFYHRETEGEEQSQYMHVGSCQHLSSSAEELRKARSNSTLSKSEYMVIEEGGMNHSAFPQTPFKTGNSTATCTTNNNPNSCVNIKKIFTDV
Chain of human Kv1.3 channel (P22001 whole entry): as above
Chain of HEK 293 cells overexpressing human Kv1.3 (P22001 whole entry): as above

Molecule | average body weight lost (AT-EAE model) | disease severity and survival (in words) (AT-EAE model) | onset of disease (AT-EAE model) | block of human Kv1.3 current (in words) (human Kv1.3 channel) | inhibition of IFNγ production (human PBMCs [1]) | thapsigargin-induced upregulation of CD40L on T cells (in words) [2] | time with significant suppression of Kv1.3 current (<70 POC) by 5% serum Test solutions [3] | thapsigargin-induced upregulation of the IL-2R on T cells (in words) [4] | thapsigargin-induced IL-2 production (in words) [5] | inhibition of IFNg production (human PBMCs [6]) | thapsigargin-induced IFN-g production (in words) [7] | staining of HEK 293 cells stably transfected with human Kv1.3 [8] | inhibition of T cell proliferation (human PBMCs [9]) | binding to fixed cells that overexpress Kv1.3 [10]
CC[C@H](C)[C@@H]1NC(=O)[C@@H](NC(=O)[C@H](CO)NC(=O)[C@@H](N)CCCNC(=N)N)CSSC[C@@H](C(=O)O)NC(=O)[C@H]([C@@H](C)O)NC(=O)CNC(=O)[C@@H]2CSSC[C@@H]3NC(=O)[C@H](CCC(N)=O)NC(=O)[C@H](Cc4ccccc4)NC(=O)[C@H](C)NC(=O)[C@H]([C@@H](C)O)NC(=O)[C@H](CSSC[C@H](NC(=O)[C@H](Cc4ccccc4)NC(=O)[C@H](CO)NC(=O)[C@H](CC(C)C)NC(=O)[C@H](CCCNC(=N)N)NC(=O)[C@H](Cc4ccc(O)cc4)NC(=O)[C@H](CCCCN)NC(=O)[C@H](CCSC)NC(=O)[C@H](CO)NC(=O)[C@H](Cc4cnc[nH]4)NC(=O)[C@H](CCCCN)NC3=O)C(=O)N[C@@H](CCCNC(=N)N)C(=O)N[C@@H](CCCCN)C(=O)N[C@@H]([C@@H](C)O)C(=O)N2)NC(=O)[C@H](CCCNC(=N)N)NC(=O)[C@H](CO)NC(=O)[C@H](CCCCN)NC(=O)[C@@H]2CCCN2C(=O)[C@H]([C@@H](C)CC)NC(=O)[C@H]([C@@H](C)O)NC(=O)[C@H](CC(=O)O)NC1=O [ShK, reference compound] | 30 g | developed severe disease and died | 4 days | potently block Kv1.3 | only a partial inhibition | suppressed | ≤ 1 h | suppressed | suppressed | only partial inhibition | suppressed | – | – | –
Fc-L10-ShK[1-35]: Fc region of human IgG1 fused via L10 linker to Kv1.3 inhibitor peptide ShK[1-35] | – | – | – | – | complete inhibition of the response | suppressed | – | suppressed | – | nearly complete inhibition | – | stains HEK 293 cells stably transfected with human Kv1.3 | blocked T cell proliferation; also recorded: potently inhibits proliferation of T cells in a dose-dependent manner | dose-dependent increase in response; also recorded: high affinity binding to its target
